Assays:
[1] = test system: proliferation of lymphocytes in the draining lymph nodes; test: Local lymph node stimulation assay; format: in vivo, CBA/J female mice; settings: positive control
Experimental: Compositions of Example 39 are subjected to a local lymph node stimulation assay in CBA/J female mice to determine if present compositions produce a hypersensitivity response as measured by the proliferation of lymphocytes in the draining lymph nodes. Ten groups of 5 mice each are used. Five groups are treated on the dorsal surface of both ears once per day for 3 days the compositions or with a positive control (35% hexylcinnamaldehyde (HCA)). On Day 6, the mice are injected intravenously (IV) with 20 μCi of ^3H-thymidine in sterile saline. Five hours later the mice are euthanized and the draining auricular lymph nodes are removed. […] A three-fold or greater increase in proliferative activity relative to the concurrent vehicle-treated control is considered a positive response. […] Since both of these stimulation indices are greater than 3, the positive controls indeed produced a positive response.

[2] = Solubility of Drugs in single solvent alcohols; format: physicochemical
Experimental: Briefly, the indicated NSAID was weighed and added to a beaker. To each beaker, incremental amounts of the indicated solvent was weighed and added. The beakers were sealed with aluminum foil and placed at room temperature or in a 35 C water bath for 20-30 minutes. They beakers were shaken frequently to mix the contents. After 20-30 minutes the solvent alcohols were examined. If a single phasic solution was not yet achieved, an additional aliquot of the solvent was added and the cycle was repeated until complete solvation had occurred.

[3] = cited from earlier work
[4] = Super-solvent water effect (maximum water before NSAID precipitates); format: physicochemical; settings: for Super-solvent Effect: in %
Experimental: Methods. […] These amounts are chosen based upon the solubility of one gram of NSAID and the amount of the single solvent alcohol for saturation. Next, water was added in step-wise manner to determine the maximum amount that can be added before any visible amount of the NSAID precipitated (i.e., the volume of water that can be added and yet remain single phasic).

[5] = cited from earlier work; remark: listed apart in the source
[6] = Prodrug (ester) formation upon storage, HPLC; format: physicochemical; settings: for rate of prodrug generation: 2% propylene glycol, linear for at least the first 26 days
Experimental: Next, the peak was characterized in terms of retention position, UV spectrum and mass spectroscopy response. In addition, isolates of the peak were collected from the chromatograph system employed for liquid chromatography-mass spectroscopy. […] The solution was centrifuged and the supernatant collected for analysis. Chromatography was conducted as follows: • Pumps: Hewlett Packard Model 1100 Binary Systems • Solvent A: Water • Solvent B: Acetonitrile • Gradient: […] Sequential detection was performed by UV absorbance using an HP diode array detector followed by ESI-MS […] using a Sciex O-Star/Pulsar quadrupole-TOF mass spectrometer operating in either the positive and negative ion modes. […] At acidic pH (e.g. […]), prodrug formation was relatively independent of Drug concentration. However, at pH 5, prodrug formation seemed to be first order (i.e. dependant upon the Drug concentration).

[7] = Flurbiprofen 2 gm, EtOH 2 gm, IPA 3 gm
[8] = Flurbiprofen 2 gm, PEG 2 gm, EtOH 2 gm
[9] = Flurbiprofen 2 gm, PEG 2 gm, IPA 3 gm
[10] = Flurbiprofen 2 gm, PG 6 gm, EtOH 2 gm
[11] = Flurbiprofen 2 gm, PG 6 gm, IPA 3 gm
[12] = Flurbiprofen 2 gm, PG 6 gm, PEG 2 gm
[13] = Flurbiprofen 3 gm, PEG 2 gm, EtOH 2 gm, IPA 3 gm
[14] = Flurbiprofen 3 gm, PG 6 gm, EtOH 2 gm, IPA 3 gm
[15] = Flurbiprofen 3 gm, PG 6 gm, PEG 2 gm, EtOH 2 gm
[16] = Flurbiprofen 3 gm, PG 6 gm, PEG 2 gm, IPA 3 gm
[17] = Flurbiprofen 4 gm, PG 6 gm, PEG 2 gm, EtOH 2 gm, IPA 3 gm

**Q.** Which results are given for `CCCCCC/C(C=O)=C\c1ccccc1` [HCA, hexylcinnamaldehyde]?
**A.** stimulation index ([1]; 35% HCA in ISW-AP-01 placebo): 4.6; stimulation index ([1]; 35% HCA in ethanol): 4.4

**Q.** Which “Maximum Drug Concentration in single alcohol: EtOH” value (from here on “Maximum Drug Concentration … EtOH”) ([2]; Solubility at 35 C) does the source give for `CC(C(=O)O)c1ccc(-c2ccccc2)c(F)c1` (stereo not shown) [Flurbiprofen] here?
**A.** The value was 33.33.

**Q.** And the “Maximum Drug Concentration in single alcohol: IPA” value (from here on “Maximum Drug Concentration … IPA”) ([2]; Solubility at 35 C)?
**A.** Its value is 25.00.

**Q.** And the “Maximum Drug Concentration in single alcohol: PEG” value (“Maximum Drug Concentration … PEG” for short) ([2]; Solubility at 35 C)?
**A.** Its value is 33.33.

**Q.** And the “Maximum Drug Concentration in single alcohol: PG” value (“Maximum Drug Concentration … PG” for short) ([2]; Solubility at 35 C)?
**A.** The value was 14.29.

**Q.** What about the “Maximum Drug Concentration … EtOH” value ([2]; Solubility at Room Temperature) of the same compound?
**A.** The value was 16.67.

**Q.** And the “Maximum Drug Concentration … IPA” value ([2]; Solubility at Room Temperature)?
**A.** Its value is 14.29.

**Q.** What about the “Maximum Drug Concentration … PEG” value ([2]; Solubility at Room Temperature) of the same compound?
**A.** Its value is 12.50.

**Q.** What about the “Maximum Drug Concentration … PG” value ([2]; Solubility at Room Temperature) of the same compound?
**A.** The value was 6.25.

**Q.** And the pKa [3]?
**A.** The pKa was 4.14.

**Q.** What about the “Flurbiprofen % W/W” value ([4]; Flurbiprofen 1 gm, EtOH 2 gm) of the same compound?
**A.** The value was 20.0 % W/W.

**Q.** What about the “Water Observed” value ([4]; Flurbiprofen 1 gm, EtOH 2 gm) of the same compound?
**A.** Its value is 2 gm.

**Q.** And the “Flurbiprofen % W/W” value ([4]; Flurbiprofen 1 gm, IPA 3 gm)?
**A.** Its value is 14.3 % W/W.

**Q.** And the “Water Observed” value ([4]; Flurbiprofen 1 gm, IPA 3 gm)?
**A.** The value was 3 gm.

**Q.** What about the “Flurbiprofen % W/W” value ([4]; Flurbiprofen 1 gm, PEG 2 gm) of the same compound?
**A.** Its value is 25.0 % W/W.

**Q.** What about the “Water Observed” value ([4]; Flurbiprofen 1 gm, PEG 2 gm) of the same compound?
**A.** Its value is 1 gm.

**Q.** And the “Flurbiprofen % W/W” value ([4]; Flurbiprofen 1 gm, PG 6 gm)?
**A.** The value was 12.5 % W/W.

**Q.** And the “Water Observed” value ([4]; Flurbiprofen 1 gm, PG 6 gm)?
**A.** Its value is 1 gm.

**Q.** What about the “Flurbiprofen % W/W” value [4, 7] of the same compound?
**A.** Its value is 18.2 % W/W.

**Q.** What about the “Super-solvent Effect” value [4, 7] of the same compound?
**A.** Its value is 37.1.

**Q.** And the “Flurbiprofen % W/W” value [4, 8]?
**A.** Its value is 25.0 % W/W.

**Q.** And the “Super-solvent Effect” value [4, 8]?
**A.** The value was 0.0.

**Q.** And the “Flurbiprofen % W/W” value [4, 9]?
**A.** Its value is 15.4 % W/W.

**Q.** What about the “Super-solvent Effect” value [4, 9] of the same compound?
**A.** The value was 135.7.

**Q.** And the “Flurbiprofen % W/W” value [4, 10]?
**A.** The value was 12.5 % W/W.

**Q.** What about the “Super-solvent Effect” value [4, 10] of the same compound?
**A.** The value was 160.0.

**Q.** And the “Flurbiprofen % W/W” value [4, 11]?
**A.** Its value is 11.8 % W/W.

**Q.** What about the “Super-solvent Effect” value [4, 11] of the same compound?
**A.** Its value is 104.5.

**Q.** What about the “Flurbiprofen % W/W” value [4, 12] of the same compound?
**A.** Its value is 14.3 % W/W.

**Q.** And the “Super-solvent Effect” value [4, 12]?
**A.** The value was 140.0.

**Q.** What about the “Flurbiprofen % W/W” value [4, 13] of the same compound?
**A.** Its value is 18.8 % W/W.

**Q.** What about the “Super-solvent Effect” value [4, 13] of the same compound?
**A.** The value was 60.0.

**Q.** What about the “Flurbiprofen % W/W” value [4, 14] of the same compound?
**A.** Its value is 13.6 % W/W.

**Q.** What about the “Super-solvent Effect” value [4, 14] of the same compound?
**A.** Its value is 90.5.

**Q.** And the “Flurbiprofen % W/W” value [4, 15]?
**A.** The value was 17.6 % W/W.

**Q.** What about the “Super-solvent Effect” value [4, 15] of the same compound?
**A.** Its value is 30.8.

**Q.** And the “Flurbiprofen % W/W” value [4, 16]?
**A.** The value was 13.6 % W/W.

**Q.** What about the “Super-solvent Effect” value [4, 16] of the same compound?
**A.** The value was 117.1.

**Q.** And the “Flurbiprofen % W/W” value [4, 17]?
**A.** The value was 15.4 % W/W.

**Q.** What about the “Super-solvent Effect” value [4, 17] of the same compound?
**A.** Its value is 81.5.

**Q.** And the “Log P” value [5]?
**A.** Its value is 4.16.

**Q.** Which “Maximum Drug Concentration … EtOH” value ([2]; Solubility at 35 C) does the source give for `CC(C)Cc1ccc(C(C)C(=O)O)cc1` (stereo not shown) [Ibuprofen] here?
**A.** The value was 50.00.

**Q.** What about the “Maximum Drug Concentration … IPA” value ([2]; Solubility at 35 C) of the same compound?
**A.** Its value is 47.62.

**Q.** And the “Maximum Drug Concentration … PEG” value ([2]; Solubility at 35 C)?
**A.** Its value is 25.00.

**Q.** And the “Maximum Drug Concentration … PG” value ([2]; Solubility at 35 C)?
**A.** Its value is 20.00.

**Q.** And the “Maximum Drug Concentration … EtOH” value ([2]; Solubility at Room Temperature)?
**A.** Its value is 37.04.

**Q.** And the “Maximum Drug Concentration … IPA” value ([2]; Solubility at Room Temperature)?
**A.** The value was 35.71.

**Q.** And the “Maximum Drug Concentration … PEG” value ([2]; Solubility at Room Temperature)?
**A.** The value was 22.22.

**Q.** And the “Maximum Drug Concentration … PG” value ([2]; Solubility at Room Temperature)?
**A.** The value was 15.38.

**Q.** And the Super-solvent Effect on water ([4]; Ibuprofen 2 gm, EtOH 1 gm, IPA 1.1 gm)?
**A.** Its Super-solvent Effect on water is 11.4%.

**Q.** And the Super-solvent Effect on water ([4]; Ibuprofen 2 gm, PEG 3 gm, EtOH 1 gm)?
**A.** The Super-solvent Effect on water was 45.9%.

**Q.** What about the Super-solvent Effect on water ([4]; Ibuprofen 2 gm, PEG 3 gm, IPA 1.1 gm) of the same compound?
**A.** The Super-solvent Effect on water was 55%.

**Q.** And the Super-solvent Effect on water ([4]; Ibuprofen 2 gm, PG 4 gm, EtOH 1 gm)?
**A.** Its Super-solvent Effect on water is 65.8%.

**Q.** And the Super-solvent Effect on water ([4]; Ibuprofen 2 gm, PG 4 gm, IPA 1.1 gm)?
**A.** Its Super-solvent Effect on water is 65.3%.

**Q.** And the Super-solvent Effect on water ([4]; Ibuprofen 2 gm, PG 4 gm, PEG 3 gm)?
**A.** The Super-solvent Effect on water was 56%.

**Q.** And the Super-solvent Effect on water ([4]; Ibuprofen 3 gm, PEG 3 gm, EtOH 1 gm, IPA 1.1 gm)?
**A.** Its Super-solvent Effect on water is 40.4%.

**Q.** And the Super-solvent Effect on water ([4]; Ibuprofen 3 gm, PG 4 gm, EtOH 1 gm, IPA 1.1 gm)?
**A.** The Super-solvent Effect on water was 63.2%.

**Q.** What about the Super-solvent Effect on water ([4]; Ibuprofen 3 gm, PG 4 gm, PEG 3 gm, EtOH 1 gm) of the same compound?
**A.** Its Super-solvent Effect on water is 57.5%.

**Q.** What about the Super-solvent Effect on water ([4]; Ibuprofen 3 gm, PG 4 gm, PEG 3 gm, IPA 1.1 gm) of the same compound?
**A.** The Super-solvent Effect on water was 57.2%.

**Q.** What about the “prodrug generation upon storage (HPLC)” value ([6]; composition of 15% ibuprofen, about 60% ethanol, 3% glycerin, 2% propylene glycol stored for 3 months at 25 C) of the same compound?
**A.** Its value is “A new peak (i.e., the prodrug) distinct from the ibuprofen peak was detected”.

**Q.** And the “effect of Drug concentration and pH on prodrug generation” value ([6]; compositions of ibuprofen with ethanol as solvent (FIG. 7))?
**A.** Its value is “higher pH (e.g. 5.0) substantially decreases the rate of prodrug formation”.

**Q.** What about the “rate of prodrug generation” value ([6]; pH 3.7, composition of 15% ibuprofen, about 60% ethanol, 3% glycerin) of the same compound?
**A.** The value was “approximately 0.05 % per day”.

**Q.** And the “rate of prodrug generation” value ([6]; pH 5, composition of 15% ibuprofen, about 60% ethanol, 3% glycerin)?
**A.** The value was “about 0.025 % per day”.

— US20130243707A1, “TOPICAL COMPOSITIONS” (priority 2006, published 2013)
